Assays:
[1] = target: T1, C-terminal catalytic domain of human DNMT3A (hDNMT3A) (Homo sapiens, UniProt Q9Y6K1); experiment: DNMT3A restriction-based fluorescence assay; format: biochemical; details: for EC50: mean of at least two independent experiments, read-out: Enzyme Inhibition (EC50 ± SD) hDNMT3A
T1 construct: the C-terminal catalytic domain of human DNMT3A (hDNMT3A)
Experimental: DNMT3A enzyme inhibition was adapted from the restriction-based fluorescence assay protocol described in Ceccaldi et al.. Briefly, a biotin-labelled oligonucleotide at the 5’ end is hybridized to his complementary strand labelled at the 3’ end with 6-carboxyfluorescein. The DNA duplex containing only one single CpG site overlapping with a restriction site of a methylation sensitive restriction enzyme is transferred in the wells coated with avidin. The methylation reaction is performed by adding human C-terminal DNMT3A at the final concentration of 4 ng/µL in a total volume of 50 µL in the presence of the inhibitors at various concentrations and the co-substrate SAM at the final concentration of 20 µM. The plate was incubated for 1 h at 37 °C, washed, and added with the methylation sensitive restriction enzyme HpyCH4IV, incubated for 1 h further at 37 °C, washed and the fluorescence measured with a PerkinElmer Envision Multilabel Plate Reader. The data are expressed as percentage of inhibition vs. log concentration (M). Data are normalized referring to the “restriction control” (wells coated with labelled duplex not treated nor exposed to DNMT3A, but only cleaved by HpyCH4IV) as the maximum of inhibition (100%) and to the “DMSO control” (wells coated with labelled duplex but treated just with 0.1% DMSO exposed to DNMT3A and then to HpyCH4IV) as the minimum of inhibition (0%; total methylation).

[2] = test system: F21T G-quadruplex DNA; experiment: FRET melting assay, G-quadruplex DNA; format: binding
Experimental: (§1) Experimental procedure for Fluorescence Resonance Energy Transfer (FRET) melting assay Oligonucleotides labeled at 5’ with FAM (6-carboxyfluorescein) as donor fluorophore and TAMRA (6 - carboxytetramethylrhodamine) at 3’ as the acceptor fluorophore were purchased from STAB VIDA (Portugal). Each oligonucleotide was initial ly diluted to 100 µM in water (Molecular Biology Reagent, Sigma). Stock solutions of 20 µM and subsequent dilutions were made with FRET buffer (60 mM KCl, potassium cacodylate, pH 7.4). Tagged oligonucleotides at 0.4 µM were annealed by heating at 90 -95 °C for 10 min, followed by slow cooling to room temperature. St ock solutions of compounds (1 mM) were prepared in 10% DMSO. Subsequent dilutions were performed using FRET buffer. Annealed DNA (50 µL) and test compound solutions (50 µL) were distributed across 96-well RT-PCR plates (PCR-96-FLT-C, Axygen, Inc). Fluorescence readings (performed in a 7300 RT -PCR equipment from Applied Biosystems) were taken at intervals of 0.5 °C in the range 31 –95 °C, with the temperature being maintained for 30 seconds prior to each reading. Experiments were performed in triplicate. Fina l analysis of the data was carried out with GraphPad Prism v.5.0 (GraphPad Software Inc., La Jolla, CA, USA).
(§2) The advanced curve-fitting function in GraphPad Prism (nonlinear regression fit) was used for calculation of ΔTm values. Only results with fitting r2 values > 0.75 (std error < 0.25) were considered.
(§3) Table S2. Synthetic oligonucleotides used in FRET experiments.

[3] = test system: KRAS21R G-quadruplex DNA; experiment: FRET melting assay, G-quadruplex DNA; format: binding
Experimental: as §1, §2, §3

[4] = test system: HT1080 human fibrosarcoma; experiment: Antiproliferative activity, MTT; format: cell-based; details: HT-1080, 48 h treatment, read-out: Antiproliferative Activity (IC50 ± SD) HT1080
Experimental: U937 histiocytic lymphoma, HL60 acute promyelocytic leukemia, H1299 lung adenocarcinoma, MCF7 breast carcinoma, HT1080 fibrosarcoma, M14 melanoma, HeLa epithelial cervix carcinoma and peripheral blood B lymphocyte AHH1 human cell lines were obtained from the Deutsche Sammlung für Mikroorganismen and Zellkulturen (DSZM, Braunschweig, Germany) and were maintained in RPMI 1640 medium contained 10% fetal bovine serum (FBS), 2 mM L-glutamine, and antibiotics in a humidified atmosphere with 5% CO2 at 37 °C. HCT116 (ATCC, VA, USA) cells were propagated in Dulbecco’s modified Eagle medium (DMEM) (Euroclone, Milan, Italy) with 10% fetal bovine serum (FBS; Euroclone, Milan, Italy), 2 mM L-glutamine (Euroclone, Milan, Italy), and antibiotics (100 U/mL penicillin, 100 µg/mL streptomycin) (Euroclone, Milan, Italy). The experiments were performed with early (3–20) cell passages. Cell lines were treated with compounds at the indicated concentrations in the exponential growth phase.
Then, increasing concentrations of different compounds (ranging from 0.01 to 100 μM) were added, and cell proliferation was evaluated by a MTT assay after 48 h. Cells exposed to DMSO were used as control. The effect of compounds was evaluated using the CellTiter-Glo luminescent cell viability assay (Promega, Madison, WI, USA) according to the manufacturer’s instructions. For HCT116, 5 × 10^4 cells/well were plated in 24-well plate and treated, in duplicate, with compounds at several concentrations for 24 and 48 h of induction. After treatments, MTT solution was added for 3 h at 0.5 mg/mL, the obtained crystals were dissolved in DMSO (Sigma-Aldrich, Milan, Italy), and the absorbance was read at a wavelength of 570 nm with reader TECAN M-200. All the experiments were performed in triplicate and repeated at least three times.
IC50 values of compounds against cellular viability were determined by using nonlinear regression fitting curves with GraphPad Prism 8. The t-test used for statistical analyses was performed with GraphPad Prism 8. All the tests were one-tailed and a p-value < 0.05 was considered statistically significant.

[5] = test system: luciferase reporter under methylated CMV promoter in KG-1 leukemia cells; experiment: CMV-luc assay in KG-1 cells; format: cell-based; details: KG-1 CMV-luc, vs DMSO
Experimental: The assay was carried out as described by Rilova et al.. The KG-1 cell line was stably transfected with the luciferase firefly (Luc^+ from pGL3 by Promega, Madison, WI, USA) reporter gene under the control of a methylated CMV promoter (from pEGFP-N1 by Clontech) and selected for the maintenance of the methylation of CMV and luciferase expression silencing (KG-1 CMV-luc). The stably integrated KG-1 CMV-luc cells are cultivated in RPMI-1640 medium (Lonza, Strasbourg, France), supplemented with 10% FCS (Lonza, Strasbourg, France) and 0.5 mg/mL of geneticin (Sigma-Aldrich, Saint-Quentin Fallavier, France), under 5% CO2, at 37 °C and seeded at 20,000 cells per well in 96-well plates. After 5 or 24 h of incubation in the presence of compounds or the solvent DMSO, the induction of the promoter is measured by quantification of luciferase with the Brite-lite assay system (PerkinElmer, Villebon-sur-Yvette, France) according to the manufacturer’s protocol. The luminescence is measured on an EnVision Multilabel Plate Reader (PerkinElmer, Villebon-sur-Yvette, France), and the data are expressed as fold induction compared to DMSO control. The mean of 2–4 experiments and its standard error are reported.

T1 sequence (Q9Y6K1 634-912 limits assumed): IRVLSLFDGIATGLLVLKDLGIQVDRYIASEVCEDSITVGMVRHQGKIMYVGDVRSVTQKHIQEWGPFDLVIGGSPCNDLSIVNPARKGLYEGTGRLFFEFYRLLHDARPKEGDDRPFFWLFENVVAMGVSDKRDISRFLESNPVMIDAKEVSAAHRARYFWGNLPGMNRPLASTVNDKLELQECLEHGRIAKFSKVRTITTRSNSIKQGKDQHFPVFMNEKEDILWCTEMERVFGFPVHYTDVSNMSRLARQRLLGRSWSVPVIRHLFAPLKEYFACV

Structure (SMILES)	EC50 [1] [µM]	F21T ∆Tm ([2]; 5 µM)	F21T ∆Tm ([2]; 10 µM)	KRAS ∆Tm ([3]; 5 µM)	KRAS ∆Tm ([3]; 10 µM)	IC50 [4] [µM]	fold more potent than 4 against hDNMT3A ([1]; ratio of EC50 values vs 4) [fold]	Luciferase Expression (Fold ± SD) ([5]; 0.5 µM) [fold]	Luciferase Expression (Fold ± SD) ([5]; 1 µM) [fold]	Luciferase Expression (Fold ± SD) ([5]; 5 µM) [fold]	Luciferase Expression (Fold ± SD) ([5]; 10 µM) [fold]	Luciferase Expression (Fold ± SD) ([5]; 25 µM) [fold]
O=C(Nc1cccc(Nc2ccnc3ccccc23)c1)c1ccc(Nc2ccnc3ccccc23)cc1 [Compound 2c]	5.6 ± 1	1 ºC	1.2 ºC	0 ºC	3.4 ºC	2.6 ± 0.6						
O=C(Nc1cccc(NC(=O)c2ccc(Nc3ccnc4ccccc34)cc2)c1)OCc1ccccc1 [Compound 4c]	6.1 ± 1	0.8 ºC	1.5 ºC	1.0 ºC	2.6 ºC	3.9 ± 0.8	3	0.96 ± 0.01	0.87 ± 0.05	40.40 ± 12.75	28.51 ± 3.39	8.07 ± 1.96
O=C(Nc1cccc(Nc2ccnc3ccccc23)c1)c1cccc(Nc2ccnc3ccccc23)c1 [Compound 2b]		2.8 ºC	5.0 ºC	1.0 ºC	7.7 ºC	2.7 ± 0.4						
O=C(Nc1ccc(NC(=O)c2cccc(Nc3ccnc4ccccc34)c2)cc1)OCc1ccccc1 [Compound 4a]	> 32	0 ºC	4.3 ºC	2.5 ºC	4.6 ºC	19.5 ± 2.8		1.05 ± 0.12	1.02 ± 0.07	1.04 ± 0.16	1.45 ± 0.39	1.60 ± 1.00
O=C(Nc1ccc(Nc2ccnc3ccccc23)cc1)c1cccc(Nc2ccnc3ccccc23)c1 [Compound 2a]	6 ± 1	0 ºC	5.1 ºC	0 ºC	6.4 ºC	0.5 ± 0.09		1.02 ± 0.04	1.05 ± 0.12	19.94 ± 4.26	4.66 ± 1.63	1.59 ± 0.59
